This experiment concerns subgenomic HCV replicon in Huh-7 cells. The experiment in a line: HCV replicon assay. Format: cell-based. The following applies: Huh-7 cells with subgenomic HCV replicon, luciferase (LUC) reporter, 72 hours, 1% DMSO; read-out: EC50 (50% inhibitory concentration) in HCV replicon cells. How it is done:
Huh-7 cells containing the self-replicating, subgenomic HCV replicon with a stable luciferase (LUC) reporter were cultured in Dulbecco's modified Eagle's medium (DMEM) containing 2 mM L-glutamine and supplemented with 10% heat-inactivated fetal bovine serum (FBS), 1% penicillin-streptomyocin, 1% nonessential amino acids, and 0.5 mg/mL G418.
Determination of 50% inhibitory concentration (EC50) of compounds in HCV replicon cells were performed by the following procedure. On the first day, 5,000 HCV replicon cells were plated per well in a 96-well plate. On the following day, test compounds were solubilized in 100% DMSO to 100× the desired final testing concentration. Each compound was then serially diluted (1:3) up to 9 different concentrations. Compounds in 100% DMSO are reduced to 10% DMSO by diluting 1:10 in cell culture media. The compounds were diluted to 10% DMSO with cell culture media, which were used to dose the HCV replicon cells in 96-well format. The final DMSO concentration was 1%. The HCV replicon cells were incubated at 37° C. for 72 hours. At 72 hours, cells were processed when the cells are still subconfluent. Compounds that reduce the LUC signal are determined by Bright-Glo Luciferase Assay (Promega, Madison, Wis.). Percent Inhibition was determined for each compound concentration in relation to the control cells (untreated HCV replicon) to calculate the EC50.
A general note: Replicon systems follow genome replication, usually without infectious particles.

In patent publication US9856284B2, “Solid forms of a thiophosphoramidate nucleotide prodrug” (Alios BioPharma, Inc., priority 2012, dated 2018) one finds EC50 data, which are given here for one compound.

Consider `CC(C)OC(=O)[C@H](C)NP(=S)(OC[C@H]1O[C@@H](n2ccc(=O)[nH]c2=O)[C@](C)(O)[C@@H]1O)Oc1ccccc1` (stereo partly drawn) [Compound 1, 2′-C-methyluridine-5′-(O-phenyl-N—(S)-1-(isopropoxycarbonyl)ethyl)thiophosphoramidate], for which the EC50 was less than 1000 nM.
